Patent publication US8044051B2, “Methods and compositions for the production of high concentration alloxazine solutions” (CaridianBCT Biotechnologies, LLC, priority 2006, dated 2011)
Where “and” joins values, the source holds several entries; their conditions need not be identical. Equal entries are not always repeated.

Columns and labels:
[1] = Concentration stability of riboflavin preparations over time (Example 4); type: physicochemical; conditions: stored at ambient temperature and pressure
Method: The concentration stability of riboflavin was measured over a period of time to determine its stability.
Various preparation of riboflavin were prepared.
Samples 1-3 were prepared by adding 10 mg riboflavin to 100 mL saline, heating at 37° C. for 30 minutes, mixing on a stir-plate for 20 minutes, and filtering through a 20 micron filter.
Sample 4 was made by adding 10 mg riboflavin to 100 mL saline, heating, and filtering through a 0.2 micron filter.
Sample 5 was prepared by adding 20 mg riboflavin to 100 mL saline, heating while mixing for 30 minutes, and filtering through a 0.2 micron filter.
Sample 6 was prepared by adding 5 mg riboflavin to 10 mL saline, heating in a water bath at 60° C. for 30 minutes, shaking vigorously for 30 seconds, and filtering through a 0.2 micron filter.
The concentration stability of riboflavin compositions are shown for each preparation. The riboflavin concentration of each experimental heat treated riboflavin sample is above that of the unheated control sample. Further, the concentration remains stable over a period of time when stored at ambient temperature and pressure.

[2] = Saturation point / solubility of riboflavin in aqueous medium at ambient temperature and pressure
Method: An amount of alloxazine is measured for combination with a solvent such as an aqueous medium or a combination of aqueous medium and a non-polar solvent.

[3] = Riboflavin concentration by absorbance after heated mixing in saline and filtration (Example 3); type: physicochemical
Method: Riboflavin (approximately 70 mg) was added to saline (approximately 200 mL) and continuously mixed on a hot plate. The container was covered, and the solution was mixed for 40 minutes. the solution was filtered through a 0.2 micron filter. The filtered solution was diluted 1:10 and its absorbance was measured.
3 mL of the riboflavin and 147 mL saline were combined. […] 30 mL of the riboflavin/saline solution was transferred to each of four 75 cm^2 flasks, which were irradiated two at a time.

SMILES	concentration stability over time [1]	solubility compared to untreated riboflavin ([2]; room temperature)	concentrations of riboflavin solutions ([3]; Example 3 riboflavin solutions)	riboflavin decomposition (spectrum) ([3]; after heated mixing 40 minutes and filtration)	riboflavin concentration ([3]; approx. 70 mg in approx. 200 mL saline, mixed on hot plate 40 minutes, 0.2 micron filtered, absorbance of 1:10 dilution)	saturation point concentration of riboflavin ([2]; 22° C. and 1 atmosphere pressure, aqueous medium, untreated)
Cc1cc2nc3c(=O)[nH]c(=O)nc-3n(C[C@H](O)[C@H](O)[C@H](O)CO)c2cc1C [riboflavin derivative alpha]	stable over time	increased solubility	–	–	–	–
Cc1cc2nc3c(=O)[nH]c(=O)nc-3n(C[C@H](O)[C@H](O)[C@H](O)CO)c2cc1C [riboflavin, 7,8-dimethyl-10-ribityl isoalloxazine]	–	–	515 µM and 528 µM	no evidence of riboflavin decomposition	540 µM	114 µM
